Measurements as given in US8436011B2, “Pyridinopyridinone derivatives, preparation thereof and therapeutic use thereof” (Sanofi, priority 2008, dated 2013).
Values joined by “and” are separate entries in the source; they are usually repeats but may differ in a detail not shown here. Equal entries are not always repeated. Structures can show the parent of a compound that is named as a salt.

Row | SMILES | melting point
1 | CCn1c(N)c(C(=O)NC)c(=O)c2ccc(-c3ccc(CC(=O)Nc4ccccc4)cc3)nc21 | 299 °C
2 | CCn1c(N)c(C(=O)NC)c(=O)c2ccc(-c3ccc(CC(=O)NC4CCCC4)cc3)nc21 | 300 °C
3 | CCN1CCCC1CN(C)C(=O)Cc1ccc(-c2ccc3c(=O)c(C(=O)NC)c(N)n(CC)c3n2)cc1 (stereo not drawn) | 138 °C
4 | CCn1c(N)c(C(=O)NC)c(=O)c2ccc(-c3ccc(CC(=O)NCCc4ccccc4)cc3)nc21 | 270 °C
5 | CCN1CCCC1CNC(=O)Cc1ccc(-c2ccc3c(=O)c(C(=O)NC)c(N)n(CC4CC4)c3n2)cc1 (stereo not drawn) | 260 °C
6 | CCn1c(N)c(C(=O)NC)c(=O)c2ccc(-c3ccc(CC(=O)Nc4ccncc4)cc3)nc21 (as salt: HCl) | 250 °C
7 | CCn1c(N)c(C(=O)NC)c(=O)c2ccc(-c3ccc(CC(=O)NCCc4ccccn4)cc3)nc21 (as salt: HCl) | 248 °C
8 | CNC(=O)c1c(N)n(CCCOC)c2nc(-c3ccc(CC(=O)Nc4ccccn4)cc3)ccc2c1=O (as salt: HCl) | 230 °C
9 | CCn1c(N)c(C(=O)NC)c(=O)c2ccc(-c3ccc(CC(=O)Nc4cccnc4)cc3)nc21 (as salt: HCl) [compound 3, 2-amino-1-ethyl-N-methyl-4-oxo-7-{4-[2-oxo-2-(pyrid-3-ylamino)ethyl]-phenyl}-1,4-dihydro-1,8-naphthyridine-3-carboxamide] | 270 °C
10 | CCn1c(N)c(C(=O)NC)c(=O)c2ccc(-c3ccc(CC(=O)Nc4ccccn4)cc3)nc21 (as salt: HCl) [compound 4, 2-amino-1-ethyl-N-methyl-4-oxo-7-{4-[2-oxo-2-(pyrid-2-ylamino)ethyl]-phenyl}-1,4-dihydro-1,8-naphthyridine-3-carboxamide] | 258 °C
11 | CCn1c(N)c(C(=O)NC)c(=O)c2ccc(-c3ccc(CC(=O)NCc4ccncc4)cc3)nc21 (as salt: HCl) [compound 7, 2-amino-1-ethyl-N-methyl-4-oxo-7-(4-{2-oxo-2-[(pyrid-4-ylmethyl)amino]-ethyl}phenyl)-1,4-dihydro-1,8-naphthyridine-3-carboxamide] | 230 °C
12 | CCn1c(N)c(C(=O)NC)c(=O)c2ccc(-c3ccc(CC(=O)NCc4ccccn4)cc3)nc21 (as salt: HCl) [compound 8, 2-amino-1-ethyl-N-methyl-4-oxo-7-(4-{2-oxo-2-[(pyrid-2-ylmethyl)amino]-ethyl}phenyl)-1,4-dihydro-1,8-naphthyridine-3-carboxamide] | 268 °C
13 | CCn1c(N)c(C(=O)NC)c(=O)c2ccc(-c3ccc(CC(=O)NCCN4CCOCC4)cc3)nc21 (as salt: HCl) [compound 18, 2-amino-1-ethyl-N-methyl-7-(4-{2-[(2-morpholin-4-ylethyl)amino]-2-oxoethyl}phenyl)-4-oxo-1,4-dihydro-1,8-naphthyridine-3-carboxamide] | 220 to 222 °C
14 | CCn1c(N)c(C(=O)NC)c(=O)c2ccc(-c3ccc(CC(=O)Nc4ccccn4)cn3)nc21 (as salt: HCl) [compound 19, 2-amino-1-ethyl-N-methyl-4-oxo-7-{5-[2-oxo-2-(pyrid-2-ylamino)-ethyl]pyrid-2-yl}-1,4-dihydro-1,8-naphthyridine-3-carboxamide] | 268 to 288 °C
15 | CCn1c(N)c(C(=O)NC)c(=O)c2ccc(-c3ccc(C(C)C(=O)Nc4ccccn4)cc3)nc21 (stereo not drawn) (as salt: HCl) [compound 20, 2-amino-1-ethyl-N-methyl-7-{4-[1-methyl-2-oxo-2-(pyrid-2-ylamino)ethyl]-phenyl}-4-oxo-1,4-dihydro-1,8-naphthyridine-3-carboxamide] | 188 °C
16 | CCN1CCOCC1CNC(=O)Cc1ccc(-c2ccc3c(=O)c(C(=O)NC)c(N)n(CC)c3n2)cc1 (stereo not drawn) (as salt: HCl) [compound 22, 2-amino-1-ethyl-7-[4-(2-{[(4-ethylmorpholin-3-yl)methyl]amino}-2-oxoethyl)phenyl]-N-methyl-4-oxo-1,4-dihydro-1,8-naphthyridine-3-carboxamide] | 188 to 190 °C and 190 °C
17 | CCN1CCOCC1CNC(=O)Cc1ccc(-c2ccc3c(=O)c(C(=O)NC)c(N)n(CC)c3n2)cn1 (stereo not drawn) (as salt: HCl) [compound 23, 2-amino-1-ethyl-7-[6-(2-{[(4-ethylmorpholin-3-yl)methyl]amino}-2-oxoethyl)pyrid-3-yl]-N-methyl-4-oxo-1,4-dihydro-1,8-naphthyridine-3-carboxamide] | 199 °C
18 | CCN1CC(F)(F)C[C@H]1CNC(=O)Cc1ccc(-c2ccc3c(=O)c(C(=O)NC)c(N)n(CC)c3n2)cc1 (as salt: HCl) [compound 24, 2-amino-1-ethyl-7-{4-[2-({[(2S)-1-ethyl-4,4-difluoropyrrolidin-2-yl]methyl}-amino)-2-oxoethyl]phenyl}-N-methyl-4-oxo-1,4-dihydro-1,8-naphthyridine-3-carboxamide] | 266 °C
19 | CCN1CCOCC1CNC(=O)C(C)c1ccc(-c2ccc3c(=O)c(C(=O)NC)c(N)n(CC)c3n2)cc1 (stereo not drawn) (as salt: HCl) [compound 25, 2-amino-1-ethyl-7-[4-(2-{[(4-ethylmorpholin-3-yl)methyl]amino}-1-methyl-2-oxoethyl)phenyl]-N-methyl-4-oxo-1,4-dihydro-1,8-naphthyridine-3-carboxamide] | 190 °C
20 | CCN1C[C@H](F)C[C@H]1CNC(=O)Cc1ccc(-c2ccc3c(=O)c(C(=O)NC)c(N)n(CC)c3n2)cc1 (as salt: HCl) [compound 26, 2-amino-1-ethyl-7-{4-[2-({[(2S,4R)-1-ethyl-4-fluoropyrrolidin-2-yl]methyl}-amino)-2-oxoethyl]phenyl}-N-methyl-4-oxo-1,4-dihydro-1,8-naphthyridine-3-carboxamide] | 170 °C
21 | CCn1c(N)c(C(=O)NC)c(=O)c2ccc(-c3ccc(CC(=O)NC[C@H]4CCCN4CCF)cn3)nc21 (as salt: HCl) [compound 29, 2-amino-1-ethyl-7-{5-[2-({[(2R)-1-(2-fluoroethyl)pyrrolidin-2-yl]methyl}-amino)-2-oxoethyl]pyrid-2-yl}-N-methyl-4-oxo-1,4-dihydro-1,8-naphthyridine-3-carboxamide] | 194 °C
22 | CCn1c(N)c(C(=O)NC)c(=O)c2ccc(-c3ccc(CC(=O)NC[C@H]4CCCN4CC(F)F)cc3)nc21 (as salt: HCl) [compound 31, 2-amino-7-{4-[2-({[(2R)-1-(2,2-difluoroethyl)pyrrolidin-2-yl]methyl}amino)-2-oxoethyl]phenyl}-1-ethyl-N-methyl-4-oxo-1,4-dihydro-1,8-naphthyridine-3-carboxamide] | 214 to 228 °C
23 | CCn1c(N)c(C(=O)NC)c(=O)c2ccc(-c3ccc(CC(=O)NCC4COCCN4C(C)C)cc3)nc21 (stereo not drawn) (as salt: HCl) [compound 32, 2-amino-1-ethyl-N-methyl-7-{4-[2-({[4-(1-methylethyl)morpholin-3-yl]-methyl}amino)-2-oxoethyl]phenyl}-4-oxo-1,4-dihydro-1,8-naphthyridine-3-carboxamide] | 192 °C
24 | CCn1c(N)c(C(=O)NC)c(=O)c2ccc(-c3ccc(CC(=O)NCC4COCCN4C4CC4)cc3)nc21 (stereo not drawn) (as salt: HCl) [compound 33, 2-amino-7-[4-(2-{[(4-cyclopropylmorpholin-3-yl)methyl]amino}-2-oxoethyl)phenyl]-1-ethyl-N-methyl-4-oxo-1,4-dihydro-1,8-naphthyridine-3-carboxamide] | 250 °C
